According to patent US7220727B2, “Aminoglycosides as antibiotics” (priority 2000, dated 2007):

How the values were obtained:
[1] = system: any of the microorganisms tested; assay: MIC, microdilution broth, whole panel of bacterial strains; type: cell-based; settings: whole spectrum of strains
Source text: (§1) Escherichia coli JM83 is an antibiotic-sensitive laboratory strain. E. coli JM83 (APH(3′)-I) contains high copies (500–700 copies per cell) of plasmid pUC19 with the cloned kanamycin resistance gene from transposon Tn903 that produces the type I aminoglycoside 3′-phosphotransferase. APH(3′)-I is the most common aminoglycoside phosphotransferase in gram-negative bacteria. E. coli JM83 (AAC6′/APH2″) contains a plasmid with the gene for the bifunctional aminoglycoside-modifying enzyme AAC(6′)/APH(2″), which is produced by many cocci. The enzyme is able to phosphorylate at the 2″ position and/or acetylate at the 6′ position of various aminoglycoside antibiotics to manifest resistance for the organisms that express it. Serratia marcescens ATCC 13880, Enterobacter cloacae ATCC 3047, Pseudomonas aeruginosa 66 and C43 are representative important gram-negative pathogens. Aminoglycosides by themselves or in combination with other antibiotics are often used to combat these microorganisms, especially P. aeruginosa that is often very difficult to treat. Staphylococcus aureus 3 and Enterococcus faecium 119 are representatives of the cocci. […]
(§2) The MICs of all antibiotics, including the compounds of the present invention (i.e., the compounds of formula (I)), were determined by microdilution method broth procedure. […]

[2] = system: Enterobacter cloacae ATCC 3047; assay: MIC, microdilution broth, E. cloacae; type: cell-based
Source text: (§3) Escherichia coli JM83 is an antibiotic-sensitive laboratory strain. E. coli JM83 (APH(3′)-I) contains high copies (500–700 copies per cell) of plasmid pUC19 with the cloned kanamycin resistance gene from transposon Tn903 that produces the type I aminoglycoside 3′-phosphotransferase. APH(3′)-I is the most common aminoglycoside phosphotransferase in gram-negative bacteria. E. coli JM83 (AAC6′/APH2″) contains a plasmid with the gene for the bifunctional aminoglycoside-modifying enzyme AAC(6′)/APH(2″), which is produced by many cocci. The enzyme is able to phosphorylate at the 2″ position and/or acetylate at the 6′ position of various aminoglycoside antibiotics to manifest resistance for the organisms that express it. Serratia marcescens ATCC 13880, Enterobacter cloacae ATCC 3047, Pseudomonas aeruginosa 66 and C43 are representative important gram-negative pathogens. Aminoglycosides by themselves or in combination with other antibiotics are often used to combat these microorganisms, especially P. aeruginosa that is often very difficult to treat. Staphylococcus aureus 3 and Enterococcus faecium 119 are representatives of the cocci. Most of these microorganisms are intrinsically resistant to aminoglycosides (poor permeability), but in combination with β-lactam antibiotics are often used to treat infections caused by these microorganisms.
(§4) The MICs of all antibiotics, including the compounds of the present invention (i.e., the compounds of formula (I)), were determined by microdilution method broth procedure. Sequential twofold dilutions of antibiotics were performed in 100 μL of Luria-Bertani (LB) broth in sterile 96-well microtiter plates. Overnight cultures of bacteria were diluted 100 times in LB broth and subgrown for several hours and 10 μL of diluted cultures were transferred into the antibiotic containing microtiter plates to bring final inoculums to 10^5 CFU/mL (CFU stands for the colony forming units). Cultures were incubated overnight at 35° C. and microtiter plates were checked from below with a reflective viewer.

[3] = system: Serratia marcescens ATCC 13880; assay: MIC, microdilution broth, S. marcescens; type: cell-based
Source text: as §3, §4

E. coli JM83 (APH(3′)-I) = assay: MIC, microdilution broth, E. coli hyper-expressing APH(3′)-I; type: cell-based, Escherichia coli; settings: for antibiotic activity / fold lower activity than tobramycin and amikacin: E. coli hyper-expressing APH(3′)-I
Source text: as §3, §4

Escherichia coli JM83 = assay: MIC, microdilution broth, E. coli JM83; type: cell-based; settings: E. coli JM83, antibiotic-sensitive laboratory strain
Source text: as §1, §2

[4] = system: E. coli JM83 (AAC6′/APH2″); assay: MIC, microdilution broth, E. coli hyper-expressing AAC(6′)/APH(2″); type: cell-based, Escherichia coli; settings: for antibiotic activity: E. coli hyper-expressing AAC(6′)/APH(2″)
Source text: as §3, §4

Staphylococcus aureus 3 = assay: MIC, microdilution broth, S. aureus; type: cell-based; settings: S. aureus 3
Source text: as §3, §4

[5] = system: Pseudomonas aeruginosa 66 and C43; assay: MIC, microdilution broth, P. aeruginosa; type: cell-based
Source text: as §3, §4

Enterococcus faecium 119 = assay: MIC, microdilution broth, E. faecium; type: cell-based; settings: E. faecium 119, moderately resistant to aminoglycosides
Source text: as §1, §2

F-AS = assay: Binding to A-site rRNA template; settings: specific assay conditions; compared with compound 4 for F-AS

Compound | antibiotic activity [2] | antibiotic activity [3] | antibiotic activity (E. coli JM83 (APH(3′)-I)) | antibiotic activity [4] | antibiotic activity (Staphylococcus aureus 3) | antibiotic activity [5] | binding to RNA (F-AS) | other results
6-O-[2-N-(3-Propylamino)ethylamino]neamine [Compound 6] | demonstrates activity | demonstrates activity | not active | not active | demonstrates activity | – | – | overall antibiotic activity [1]: lower activity than compound 3; antibiotic activity (Escherichia coli JM83): demonstrates activity
NCCNCCOC1C(NC(=O)[C@@H](O)CCN)CC(N)C(O[C@H]2O[C@H](CN)[C@@H](O)[C@H](O)[C@H]2N)C1O (stereo partly drawn) [Compound 3, 1-N-[(S)-4-Amino-2-hydroxybutanoyl]-6-O-[2-N-(2-ethylamino)ethylamino]neamine] | – | – | – | – | – | – | – | MIC values relative to compounds 4 and 5 [1]: approximately four-fold higher
NCCCNCCOC1C(NC(=O)[C@@H](O)CCN)CC(N)C(O[C@H]2O[C@H](CN)[C@@H](O)[C@H](O)[C@H]2N)C1O (stereo partly drawn) [Compound 4, 1-N-[(S)-4-Amino-2-hydroxybutanoyl]-6-O-[2-N-(3-propylamino)ethylamino]neamine] | excellent activities | excellent activities | good activity | good activity | good activities | excellent activities | – | fold lower activity than tobramycin and amikacin (E. coli JM83 (APH(3′)-I)): 8 fold; antibiotic activity (Enterococcus faecium 119): good activities
NCCCCNCCOC1C(NC(=O)[C@@H](O)CCN)CC(N)C(O[C@H]2O[C@H](CN)[C@@H](O)[C@H](O)[C@H]2N)C1O (stereo partly drawn) [Compound 5, 1-N-[(S)-4-Amino-2-hydroxybutanoyl]-6-O-[2-N-(4-butylamino)ethylamino]neamine] | excellent activities | excellent activities | good activity | good activity | good activities | excellent activities | comparable binding affinity | fold lower activity than tobramycin and amikacin (E. coli JM83 (APH(3′)-I)): 8 fold; antibiotic activity (Enterococcus faecium 119): good activities
NCCCN(CCOC1C(NC(=O)[C@@H](O)CCN)CC(N)C(O[C@H]2O[C@H](CN)[C@@H](O)[C@H](O)[C@H]2N)C1O)C(=O)[C@@H](O)CCN (stereo partly drawn) [Compound 7, 1-N,6-O-(2-N)-Bis[(S)-4-amino-2-hydroxybutanoyl]-6-O-[2-N-(3-propylamino)ethylamino]neamine] | moderate activity | moderate activity | moderate activity | moderate activity | – | moderate activity | – | MIC (E. coli JM83 (APH(3′)-I); E. coli strain producing APH(3′)-I): 64 µg/mL; MIC ([4]; E. coli strain producing AAC(6′)/APH(2″)): 32 µg/mL
NCCCCNCCOC1C(NC(=O)Cc2ccc(N)cc2)CC(N)C(O[C@H]2O[C@H](CN)[C@@H](O)[C@H](O)[C@H]2N)C1O (stereo partly shown) [Compound 8, 1-N-[4-Aminophenylethanoyl]-6-O-[2-N-(4-butylamino)ethylamino]neamine] | – | – | – | – | – | – | do bind to the RNA | –
NCCCCNCCOC1C(NC(=O)Cc2cccc(N)c2)CC(N)C(O[C@H]2O[C@H](CN)[C@@H](O)[C@H](O)[C@H]2N)C1O (stereo partly shown) [Compound 9, 1-N-[3-Aminophenylethanoyl]-6-O-[2-N-(4-butylamino)ethylamino]neamine] | – | – | – | – | – | – | do bind to the RNA | –
